Measurements from paper PMC12844237, “A Novel Quinolone JH62 (E-2-(Tridec-4-en-1-yl)-quinolin-4(1H)-one) from Pseudomonas aeruginosa Exhibits Potent Anticancer Activity” (Microorganisms, 2025).
Read-outs that look alike come from different tables or passages of the source. Each block holds one compound with its values, some of them ahead of it.

Assays:
A549 cells [1] = conditions: cited from earlier work
[2] = clinically successful drugs; cited from earlier work
HeLa = system: HeLa; set-up: method as in PMID 8823519; conditions: HeLa ref 87; cited from earlier work
[3] = system: MEF: murine embryonic fibroblast; experiment: WST-1 cell viability, MEF; type: cell-based; conditions: Mus musculus, non-cancer cell line
Source text: (§1) Different cells were utilized as follows: MEF: murine embryonic fibroblast (RRID: CVCL_L690); AML12: mouse liver cell lines (RRID: CVCL_0140); WI-38: human lung fibroblast cell lines (RRID: CVCL_0579); THLE-2: human liver epithelial cell lines (RRID: CVCL_3803); A549: human lung cancer cell lines (RRID: CVCL_0023); HEPG2: human liver cancer cell lines (RRID: CVCL_0027); HEP3B: human hepatoma cell lines (RRID: CVCL_0326); BxPC3: human pancreatic cancer cell lines (RRID: CVCL_0186); U87: human primary glioblastoma cell lines (RRID: CVCL_0022); DU145: human prostate cancer cell lines (RRID: CVCL_0105); MCF7: human breast cancer cell lines (RRID: CVCL_0031); HeLa: human cervical cancer cell lines (RRID: CVCL_0030); HCT116: human colon cancer cell lines (RRID: CVCL_0291). Cells were maintained in Dulbecco’s modified Eagle’s medium (DMEM, Gibco) supplemented with L-glutamine (Lonza) (2 mM), 10% fetal bovine serum (FBS, Hyclone), 1 × non-essential amino acids, and sodium pyruvate (1 mM). THLE-2 cells were maintained in THLE-2 Cell Complete Medium (Zhong Qiao Xin Zhou, Shanghai, China). Cells were incubated at 37 °C in a humidified incubator with 5% CO2. […]
(§2) Cell viability was assessed using the WST-1 assay, based on a previously reported method with slight modifications. […] Absorbance at OD450 was measured using a microplate reader (Synergy H1; BioTek Instruments, Winooski, VT, USA).

[4] = system: AML12: mouse liver cell lines; experiment: WST-1 cell viability, AML12; type: cell-based; conditions: AML12, non-cancer cell line
Source text: as §1, §2

[5] = system: WI-38: human lung fibroblast cell lines; experiment: WST-1 cell viability, WI-38; type: cell-based; conditions: WI-38, non-cancer cell line
Source text: as §1, §2

[6] = system: THLE-2: human liver epithelial cell lines; experiment: WST-1 cell viability, THLE-2; type: cell-based; conditions: THLE-2, non-cancer cell line
Source text: as §1, §2

[7] = system: HEPG2: human liver cancer cell lines; experiment: WST-1 cell viability, HEPG2; type: cell-based; conditions: HEPG2 (liver) cancer cell line
Source text: as §1, §2

[8] = system: HEP3B: human hepatoma cell lines; experiment: WST-1 cell viability, HEP3B; type: cell-based; conditions: HEP3B (liver) cancer cell line
Source text: as §1, §2

[9] = system: BxPC3: human pancreatic cancer cell lines; experiment: WST-1 cell viability, BxPC3; type: cell-based; conditions: BXPC-3, BxPC3 (pancreatic) cancer cell line
Source text: as §1, §2

[10] = system: U87: human primary glioblastoma cell lines; experiment: WST-1 cell viability, U87; type: cell-based; conditions: U87 (glioblastoma) cancer cell line
Source text: as §1, §2

[11] = system: DU145: human prostate cancer cell lines; experiment: WST-1 cell viability, DU145; type: cell-based; conditions: DU-145, DU145 (prostate) cancer cell line
Source text: as §1, §2

[12] = system: A549: human lung cancer cell lines; experiment: WST-1 cell viability, A549; type: cell-based; conditions: Homo sapiens, A549, A549 (lung) cancer cell line, WST-1
Source text: Different cells were utilized as follows: MEF: murine embryonic fibroblast (RRID: CVCL_L690); AML12: mouse liver cell lines (RRID: CVCL_0140); WI-38: human lung fibroblast cell lines (RRID: CVCL_0579); THLE-2: human liver epithelial cell lines (RRID: CVCL_3803); A549: human lung cancer cell lines (RRID: CVCL_0023); HEPG2: human liver cancer cell lines (RRID: CVCL_0027); HEP3B: human hepatoma cell lines (RRID: CVCL_0326); BxPC3: human pancreatic cancer cell lines (RRID: CVCL_0186); U87: human primary glioblastoma cell lines (RRID: CVCL_0022); DU145: human prostate cancer cell lines (RRID: CVCL_0105); MCF7: human breast cancer cell lines (RRID: CVCL_0031); HeLa: human cervical cancer cell lines (RRID: CVCL_0030); HCT116: human colon cancer cell lines (RRID: CVCL_0291). Cells were maintained in Dulbecco’s modified Eagle’s medium (DMEM, Gibco) supplemented with L-glutamine (Lonza) (2 mM), 10% fetal bovine serum (FBS, Hyclone), 1 × non-essential amino acids, and sodium pyruvate (1 mM). THLE-2 cells were maintained in THLE-2 Cell Complete Medium (Zhong Qiao Xin Zhou, Shanghai, China). Cells were incubated at 37 °C in a humidified incubator with 5% CO2. A549 cells were previously stored in the lab and other cell lines were a gift from Haishan Wang’s lab (Institute of Molecular and Cell Biology, Singapore). All cell lines were confirmed to be contamination-free.
(§3) Cell viability was assessed using the WST-1 assay, based on a previously reported method with slight modifications. Briefly, cells were seeded at 1 × 10^4 cells per well in 96-well plates and then treated with different doses of JH62 or DOX for 0–72 h. The cells used included non-cancer cells (MEF, AML12, WI-38, and THLE-2) and cancer cells (A549, HEPG2, HEP3B, BxPC3, U87, DU145, MCF7, HeLa, and HCT116). The WST-1 reagent (Roche, Shanghai, China) was added to each well (10% vol/vol final concentration), followed by incubation for 3 h at 37 °C. Absorbance at OD450 was measured using a microplate reader (Synergy H1; BioTek Instruments, Winooski, VT, USA).

[13] = system: MCF7: human breast cancer cell lines; experiment: WST-1 cell viability, MCF7; type: cell-based; conditions: MCF7 (breast) cancer cell line
Source text: as §1, §2

[14] = system: HeLa: human cervical cancer cell lines; experiment: WST-1 cell viability, HeLa; type: cell-based; conditions: HeLa (cervical) cancer cell line
Source text: as §1, §2

[15] = system: HCT116: human colon cancer cell lines; experiment: WST-1 cell viability, HCT116; type: cell-based; conditions: HCT-116, HCT116 (colon) cancer cell line
Source text: as §1, §2

A549 cells [16] = experiment: Chromosome staining experiment; type: cell-based, human; conditions: A549, 5 μM DOX or 25 μM JH62 for 6 h
Experimental: Metaphase chromosome spreads were prepared from A549 cells. Briefly, A549 cells were cultured. After treatment with JH62 or DOX, cells were incubated with Colcemid (Gibco BRL; 0.2 μg/mL final concentration) for 2 h to arrest cells in metaphase. Cells were then subjected to hypotonic treatment in KCl (0.075 M) at 37 °C for 5 min, and fixed by repeated washing with ice-cold freshly prepared 3:1 (vol/vol) methanol:acetic acid. Chromosome spreads were prepared on premarked glass slides using the “drop-cryo” protocol. The chromosome suspension was dropped onto a slide. This was followed by adding three drops of 45% acetic acid and placing a coverslip over the suspension. The slide was then inverted and placed on dry ice for 15 min. The spreads were postfixed in 2.5% glutaraldehyde in cacodylate buffer (pH 7.4, 75 mM) for 15 min and washed with cacodylate buffer (0.1 M). The chromosomes were stained with Vista Green DNA dye (Cell Biolabs, Singapore). After staining, the preparations were washed in water for 5, 10, and 15 min, then dehydrated using a series of ethanol solutions as follows: 5 min in a 70% solution, 10 min in an 85% solution, and 15 min in 100% ethanol. Finally, slides were mounted with a permanent mounting medium, sealed, and analyzed by microscopy.

A549 cells [17] = experiment: DNA fragmentation analysis (genomic DNA electrophoresis); type: cell-based, human; conditions: A549, 24 h; JH62 5–100 µM, DOX 1 and 5 μM
Experimental: Genomic DNA fragmentation was analyzed by agarose gel electrophoresis using previously described methods. A549 cells were seeded in 6 cm tissue culture dishes and cultured overnight. Before treatment with JH62 or DOX, the cells were cultured in DMEM lacking FBS for 16 h. After treatment, the cells were then washed three times with PBS and genomic DNA was extracted using a MasterPure™ DNA Purification Kit (Lucigen Corporation, Middleton, WI, USA). The DNA pellet was airdried and resuspended in Tris-HCl (pH 8.0, 10 mM). DNA samples (2.5 μg) were separated by 1% agarose gel electrophoresis in TAE buffer containing ethidium bromide.

A549 cells [18] = experiment: Comet assay; type: cell-based, human; conditions: A549, 1, 8, and 12 h
Experimental: Residual DNA damage was detected by alkaline single cell gel electrophoresis (Comet Assay) using the Trevigen Comet Assay Kit (Trevigen, Gaithersburg, MD, USA) following the manufacturer’s protocol with slight modifications. […] The treated cells were trypsinized and pelleted by centrifugation. The cell pellets were washed and resuspended in 2 mL of ice-cold PBS. The cell suspension was mixed 1:10 (vol/vol) with low-melting point agar at 42 °C and immediately pipetted onto a CometSlide™. Slides were incubated at 4 °C in the dark for 30 min, immersed in chilled lysis solution and incubated again at 4 °C for 30 min. Slides were placed in a horizontal electrophoresis chamber and electrophoresed with buffer NaOH (0.3 M) and EDTA (1 mM) at 1 V/cm for 15 min. Samples were dried and stained with Vista Green DNA dye (Cell Biolabs, Singapore). Comet tails were imaged using a model DM 2500 fluorescent microscope (Leica, Wetzlar, Germany) and quantified by Komet 5.5 software (Andor Technology, Belfast, UK). A minimum of 50 cells were scored per treatment. All experiments were performed independently in triplicate.

[19] = system: non-cancer cells (MEF, AML12, WI-38, and THLE-2); experiment: WST-1 cell viability, panel of non-cancer cells; type: cell-based; conditions: across non-cancer cells (MEF, AML12, WI-38, and THLE-2)
Experimental: as §3

cancer cell lines = experiment: WST-1 cell viability, panel of cancer cell lines; type: cell-based; conditions: Homo sapiens; across the tested cancer cell lines
Experimental: as §3

[20] = system: both non-cancer and cancer cells; experiment: WST-1 cell viability, non-cancer and cancer cells together; type: cell-based; conditions: against both non-cancer and cancer cells
Experimental: Cell viability was assessed using the WST-1 assay, based on a previously reported method with slight modifications [54]. […] The cells used included non-cancer cells (MEF, AML12, WI-38, and THLE-2) and cancer cells (A549, HEPG2, HEP3B, BxPC3, U87, DU145, MCF7, HeLa, and HCT116). The WST-1 reagent (Roche, Shanghai, China) was added to each well (10% vol/vol final concentration), followed by incubation for 3 h at 37 °C. Absorbance at OD450 was measured using a microplate reader (Synergy H1; BioTek Instruments, Winooski, VT, USA).

Structure (SMILES): Oc1cccc2cccnc12 [8-hydroxyquinoline]
- IC50 (A549 cells [1]; A549 ref 85): 26 µM

Structure (SMILES): O=C1NC(=O)C(c2ccccc2)(c2ccccc2)N1 [phenytoin]
- PPB [2]: exceeding 98%

Structure (SMILES): CCCCCCCc1[nH]c2ccccc2c(=O)c1O [PQS, 2-heptyl-3-hydroxy-4(1H)-quinolone]
- IC50 (A549 cells [1]; A549 cells ref 82,83): 19 µM

Structure (SMILES): CCCCCC/C=C/Cc1c(C)c(=O)c2ccccc2n1O [E-1-hydroxy-2-(non-2-enyl)-3-methyl-4-quinolone]
- IC50 (HeLa): 1900 nM

- IC50 [7]: 800 ± 100 nM
- IC50 [8]: 3.3 ± 0.2 µM
- IC50 [9]: 1900 ± 100 nM
- IC50 [10]: 1400 ± 1000 nM
- IC50 [11]: 1900 ± 200 nM
- IC50 [12]: 2100 ± 500 nM
- IC50 [13]: 1200 ± 500 nM
- IC50 [14]: 700 ± 700 nM
- IC50 [15]: 3.9 ± 0.7 µM
- chromosome morphology (A549 cells [16]): fragmented and adhered together
- genomic DNA integrity (electrophoresis) (A549 cells [17]): obvious DNA fragmentation
- comet tail analysis (A549 cells [18]): distinct and typical comet tail
- IC50 (cancer cell lines): 700 to 3900 nM
Structure (SMILES): COc1cccc2c1C(=O)c1c(O)c3c(c(O)c1C2=O)C[C@@](O)(C(=O)CO)C[C@@H]3O[C@H]1C[C@H](N)[C@H](O)[C@H](C)O1 [DOX, Doxorubicin, reference compound]
- IC50 [3]: 3.9 ± 0.4 µM
- IC50 [4]: 5.1 ± 1.3 µM
- IC50 [5]: 1900 ± 300 nM
- IC50 [6]: 1200 ± 100 nM
- IC50 [19]: 1.2 to 5.1 µM
- IC50 [20]: 500 to 5000 nM
